target: T1, Recombinant human Protein-tyrosine phosphatase1B (PTP1B) (Homo sapiens, UniProt P18031); test: PTP1B enzyme inhibition assay (pNpp substrate); type: biochemical; settings: inhibition of recombinant human PTP1B, pNpp 5 mM, 30 mins at 25° C; inhibitor concentration not given
T1 construct: Recombinant human Protein-tyrosine phosphatase1B (PTP1B) (amino acid 1-322 Biomol, USA); purchased Biomol, USA
T1 sequence (P18031 1-322): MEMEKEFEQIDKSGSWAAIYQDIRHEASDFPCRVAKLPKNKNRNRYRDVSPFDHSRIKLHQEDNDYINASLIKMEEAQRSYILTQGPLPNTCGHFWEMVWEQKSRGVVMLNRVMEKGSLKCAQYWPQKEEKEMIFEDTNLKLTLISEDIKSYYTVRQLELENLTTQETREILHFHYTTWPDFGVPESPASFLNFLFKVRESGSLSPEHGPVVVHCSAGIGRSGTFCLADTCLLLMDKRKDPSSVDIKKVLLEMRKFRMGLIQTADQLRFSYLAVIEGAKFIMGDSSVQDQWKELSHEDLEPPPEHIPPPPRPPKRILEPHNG
Method: Protein tyrosine phosphatase 1B (PTP1B) is an intracellular enzyme which functions by removing the phosphate groups from phosphorylated tyrosine residues of cellular proteins. PTP1B has been implicated as a negative regulator of insulin action and therefore is of therapeutic interest. The ability of the test compounds to inhibit the activity of PTP1B is determined using an enzyme inhibition assay.
The assay is performed using two independent substrates of PTP1B namely, p-nitrophenyl phosphate (pNpp) and the phosphorylated Epidermal growth factor receptor peptide (EGFR).
In the assay performed with pNpp, the action of PTP1B results in the release of p-nitrophenol, which is yellow in colour and can be measured at 410 nm. In the case of the assay using EGFR, action of PTP1B results in the release of free phosphate group. This is trapped using a reagent containing ammonium molybdate and malachite green resulting in a colored complex whose absorbance can be measured at 620 nm.
1× Assay buffer 50 mM HEPES (pH 7.4) • 1 mM EDTA • 1 mM DTT • 0.05% Igepal® CA-630
Dilute recombinant Human PTP1B 1:150 in 1× Assay buffer for 10× stock,
Prepare 10× stock of pNpp (50 mM) in 1× Assay buffer
Prepare 100× stock in 100% DMSO, dilute 1:10 with 1× Assay buffer to get 10× stock in 10% DMSO.
PTP1B inhibition assay was performed using recombinant human PTP1B. PTP1B (0.016 μg/well) was incubated in a buffer containing 50 mM HEPES, 1 mM DTT, 1 mM EDTA and 0.05% Igepal® CA-630 with or without inhibitor (10× stock, final DMSO concentration is 1%) for 30 mins at 25° C. This was followed by addition of p-Nitrophenyl phosphate (pNpp) substrate (5 mM). The final volume of the reaction mixture is 50 μL and experiment was done in 96 well half area plate. The incubation was continued for 30 mins at 25° C. The conversion of pNpp to p-Nitrophenol (pNp) was measured at 410 nm in Spectramaxplus Spectrophotometer (Molecular Devices, USA).

Row | Compound | Activity Score
1 | 4-[5-(6-Ethoxy-naphthalen-2-ylmethylene)-4-oxo-4,5-dihydro-thiazol-2-ylamino]-phenyl}-sodium acetate [Compound 143] | (+++) (+++ = >50% inhibition)
2 | O=C(O)Cc1ccc(NC2=NC(=O)C(=Cc3ccc4ccccc4c3)S2)cc1 [Compound 1, [4-(5-Naphthalen-2-ylmethylene-4-oxo-4,5-dihydro-thiazol-2-ylamino)-phenyl]-acetic acid] | (+++) (+++ = >50% inhibition)
3 | O=C(O)Cc1ccc(NC2=NC(=O)C(=Cc3cn(CC(=O)O)c4ccccc34)S2)cc1 [Compound 2, {4-[5-(1-Carboxymethyl-1H-indol-3-ylmethylene)-4-oxo-4,5-dihydro-thiazol-2-ylamino]-phenyl}-acetic acid] | (+++) (+++ = >50% inhibition)
4 | O=C(O)Cc1ccc(NC2=NC(=O)C(=Cc3cc4ccccc4cc3OCc3ccccc3)S2)cc1 [Compound 3, {4-[5-(3-Benzyloxy-naphthalen-2-ylmethylene)-4-oxo-4,5-dihydro-thiazol-2-ylamino]-phenyl}-acetic acid] | (+++) (+++ = >50% inhibition)
5 | O=C(O)Cc1ccc(NC2=NC(=O)C(=Cc3ccccc3)S2)cc1 [Compound 5, [4-(5-Benzylidene-4-oxo-4,5-dihydro-thiazol-2-ylamino)-phenyl]-acetic acid] | (+) (+ = 10-20% inhibition)
6 | COc1ccc2cc(C=C3SC(Nc4ccc(CC(=O)O)cc4)=NC3=O)ccc2c1 [Compound 7, {4-[5-(6-Methoxy-naphthalen-2-ylmethylene)-4-oxo-4,5-dihydro-thiazol-2-ylamino]-phenyl}-acetic acid] | (+++) (+++ = >50% inhibition)
7 | O=C(O)Cc1ccc(NC2=NC(=O)C(=Cc3c[nH]c4ccccc34)S2)cc1 [Compound 8, {4-[5-(1H-Indol-3-ylmethylene)-4-oxo-4,5-dihydro-thiazol-2-ylamino]-phenyl}-acetic acid] | (+) (+ = 10-20% inhibition)
8 | O=C(O)Cc1ccc(NC2=NC(=O)C(=Cc3ccc(-c4ccccc4)cc3)S2)cc1 [Compound 9, [4-(5-Biphenyl-4-ylmethylene-4-oxo-4,5-dihydro-thiazol-2-ylamino)-phenyl]-acetic acid] | (+++) (+++ = >50% inhibition)
9 | CC(C)Oc1cc2ccccc2cc1C=C1SC(Nc2ccc(CC(=O)O)cc2)=NC1=O [Compound 10, {4-[5-(3-Isopropoxy-naphthalen-2-ylmethylene)-4-oxo-4,5-dihydro-thiazol-2-ylamino]-phenyl}-acetic acid] | (++) (++ = 20-50% inhibition)
10 | CC(C)(C)OC(=O)Cn1cc(C=C2SC(Nc3ccc(CC(=O)O)cc3)=NC2=O)c2ccccc21 [Compound 11, {4-[5-(1-tert-Butoxycarbonylmethyl-1H-indol-3-ylmethylene)-4-oxo-4,5-dihydro-thiazol-2-ylamino]-phenyl}-acetic acid] | (++) (++ = 20-50% inhibition)
11 | CC(=C1SC(Nc2ccc(CC(=O)O)cc2)=NC1=O)c1cc2ccccc2o1 [Compound 13, {4-[5-(1-Benzofuran-2-yl-ethylidene)-4-oxo-4,5-dihydro-thiazol-2-ylamino]-phenyl}-acetic acid] | (++) (++ = 20-50% inhibition)
12 | O=C(O)Cc1cccc(NC2=NC(=O)C(=Cc3cc4ccccc4cc3OCc3ccccc3)S2)c1 [Compound 14, {3-[5-(3-Benzyloxy-naphthalen-2-ylmethylene)-4-oxo-4,5-dihydro-thiazol-2-ylamino]-phenyl}-acetic acid] | (++) (++ = 20-50% inhibition)
13 | O=C(O)Cc1cccc(NC2=NC(=O)C(=Cc3ccc4ccccc4c3)S2)c1 [Compound 16, [3-(5-Naphthalen-2-ylmethylene-4-oxo-4,5-dihydro-thiazol-2-ylamino)-phenyl]-acetic acid] | (+) (+ = 10-20% inhibition)
14 | N#Cc1ccccc1-c1ccc(C=C2SC(Nc3ccc(CC(=O)O)cc3)=NC2=O)cc1 [Compound 17, {4-[5-(2′-Cyano-biphenyl-4-ylmethylene)-4-oxo-4,5-dihydro-thiazol-2-ylamino]-phenyl}-acetic acid] | (++) (++ = 20-50% inhibition)
15 | O=C(O)Cc1ccc(NC2=NC(=O)C(=Cc3ccc(-n4cccc4)cc3)S2)cc1 [Compound 18, {4-[4-Oxo-5-(4-pyrrol-1-yl-benzylidene)-4,5-dihydro-thiazol-2-ylamino]-phenyl}-acetic acid] | (+++) (+++ = >50% inhibition)
16 | O=C(O)Cc1ccc(NC2=NC(=O)C(=Cc3ccc(-c4nnn[nH]4)cc3)S2)cc1 [Compound 19, (4-{4-Oxo-5-[4-(1H-tetrazol-5-yl)-benzylidene]-4,5-dihydro-thiazol-2-ylamino}-phenyl)-acetic acid] | (+++) (+++ = >50% inhibition)
17 | CC(C)Oc1cc2ccccc2cc1C=C1SC(Nc2cccc(CC(=O)O)c2)=NC1=O [Compound 21, {3-[5-(3-Isopropoxy-naphthalen-2-ylmethylene)-4-oxo-4,5-dihydro-thiazol-2-ylamino]-phenyl}-acetic acid] | (+++) (+++ = >50% inhibition)
18 | Cc1ccc(S(=O)(=O)NC(=O)Cc2ccc(NC3=NC(=O)C(=Cc4cc5ccccc5cc4OCc4ccccc4)S3)cc2)cc1 [Compound 26, N-(2-{4-[5-(3-Benzyloxy-naphthalen-2-ylmethylene)-4-oxo-4,5-dihydro-thiazol-2-ylamino]-phenyl}-acetyl)-4-methyl-benzenesulfonamide] | (+) (+ = 10-20% inhibition)
19 | O=C(O)Cc1ccc(NC2=NC(=O)C(=Cc3cc4ccccc4cc3O)S2)cc1 [Compound 32, {4-[5-(3-Hydroxy-naphthalen-2-ylmethylene)-4-oxo-4,5-dihydro-thiazol-2-ylamino]-phenyl}-acetic acid] | (+++) (+++ = >50% inhibition)
20 | O=C1N=C(Nc2ccc(Cc3nnn[nH]3)cc2)SC1=Cc1cc2ccccc2cc1OCc1ccccc1 [Compound 33, 5-(3-Benzyloxy-naphthalen-2-ylmethylene)-2-[4-(1H-tetrazol-5-ylmethyl)-phenylamino]-thiazol-4-one] | (+) (+ = 10-20% inhibition)
21 | O=C(O)Cc1ccc(NC2=NC(=O)C(=Cc3ccc(C(=O)N4CCOCC4)cc3)S2)cc1 [Compound 36, (4-{5-[4-(Morpholine-4-carbonyl)-benzylidene]-4-oxo-4,5-dihydro-thiazol-2-ylamino}-phenyl)-acetic acid] | (+) (+ = 10-20% inhibition)
22 | CC(C)(C)c1cc(C=C2SC(Nc3ccc(CC(=O)O)cc3)=NC2=O)cc(C(C)(C)C)c1O [Compound 37, {4-[5-(3,5-Di-tert-butyl-4-hydroxy-benzylidene)-4-oxo-4,5-dihydro-thiazol-2-ylamino]-phenyl}-acetic acid] | (+++) (+++ = >50% inhibition)
23 | O=C(O)CCc1ccc(NC2=NC(=O)C(=Cc3cn(CC(=O)O)c4ccccc34)S2)cc1 [Compound 43, 3-{4-[5-(1-Carboxymethyl-1H-indo-3-ylmethylene)-4-oxo-4,5-dihydro-thiazol-2-ylamino]-phenyl}-propionic acid] | (+++) (+++ = >50% inhibition)
24 | CNS(=O)(=O)Cc1ccc(NC2=NC(=O)C(=Cc3cn(CC(=O)O)c4ccccc34)S2)cc1 [Compound 44, {3-[2-(4-Methylsulfamoylmethyl-phenylamino)-4-oxo-4H-thiazol-5-ylidenemethyl]-indol-1-yl}-acetic acid] | (+) (+ = 10-20% inhibition)

From patent publication US20090088432A1, “Thiazolinones and Oxazolinones and their Use as Ptp1b Inhibitors” (priority 2005, published 2009)
